Experimental data as given in patent US12145947B2, “Pyrimidine based modulators and uses thereof” (Quanta Therapeutics, Inc., priority 2022, dated 2024).

Key:
[1] = tested on: GP2D cells (KRAS G12D), phospho-ERK; assay: pERK In Cell Western (ICW) assay, GP2D cells; type: cell-based; conditions: Table 4, 3 hours
Method: (§1) pERK ICW is a high throughput screening assay to evaluate the cellular potency of mutant KRAS small molecule inhibitors. KRAS mutant cell lines AGS and GP2D (KRAS^G12D) were purchased from ATCC and maintained respectively in RPMI and DMEM medium supplemented with 10% fetal bovine serum and Penicillin/Streptomycin.
(§2) Cells grown in exponential phase were trypsinized, resuspended in fresh media, and viable cells were counted using a cell counter with Trypan Blue (BioRad TC20). Cells were seeded into 384-well plate (Greiner 781091) at density of 5,000 cells/well for AGS and 10,000 cells/well for GP2D and allowed to grow overnight in a 37° C. CO2 incubator. The next day, compounds were dispensed into wells with a ½ log, 10-point serial dilution and top concentration of […] using Tecan D300e dispenser and incubated for 3 hours in a 37° C. CO2 incubator. Cells were then fixed with paraformaldehyde (Electron Microscopy Sciences, 15710, 4% final concentration) for 30 min, permeabilized with wash buffer (1×PBS+0.1% Triton X-100) for 30 min and blocked with Odyssey blocking buffer (Li—COR 927-70001) for 1 hour, all at room temperature (RT). Phospho-ERK antibody (CST 4370L) was diluted 1:500 in Odyssey blocking+0.2% Tween 20 and incubated with cells overnight at 4° C. The next day, plates were washed 5× with wash buffer, incubated with IRDye 800 CW, Goat anti-Rabbit secondary antibody (Li—COR 926-32211, 1:500) and DRAQ5 (CST 4084L, 1:5,000) diluted in Odyssey blocking+0.2% Tween 20 for 1 hour, washed 5×, and imaged on an Odyssey CLx imaging system.
(§3) For data analysis, signal intensities from 800 (phosphor-ERK) and 700 (DRAQ5) channels were extracted, and phospho-ERK signals were normalized to DRAQ5 signals for each well and percent of DMSO control values were computed. Data were then imported into Graphpad Prism to compute half-maximal inhibitory concentrations (IC50) using a 4-parameter variable slope model. Z-factor for each plate was computed from signals derived from wells treated with either DMSO or […] of Trametinib. AGS pERK ICW (Method B) IC50 (uM) values of selected compounds are depicted in Table 2 with compounds having a value 0.001 uM to 0.01 uM as ++++; >0.01 uM to 0.1 uM as +++; >0.1 uM to 1 uM as ++; 1 uM to 10 uM as + and >10 uM as NA.

[2] = molecular target: T1, GST-tagged KRAS-G12D (2-169) (Homo sapiens, UniProt P01116, G12D); assay: Nucleotide exchange assay (NEA), SOS-mediated, HTRF, KRAS G12D; type: biochemical; conditions: Table 4; IC50 extracted at 30 min
T1 construct: GST-tagged KRAS-G12D (2-169, Reaction Biology, MSC-11-539); purchased Reaction Biology MSC-11-539 (KRAS G12D); MSC-11-502 (SOS1cat)
T1 sequence (P01116 2-169 isoform P01116-2 G12D): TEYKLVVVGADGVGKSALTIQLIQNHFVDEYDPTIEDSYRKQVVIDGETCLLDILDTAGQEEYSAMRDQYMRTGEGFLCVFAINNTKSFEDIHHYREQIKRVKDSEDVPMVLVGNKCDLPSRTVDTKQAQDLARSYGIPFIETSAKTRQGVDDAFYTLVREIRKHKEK
Outline: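 GST-KRAS-G12D (2-169, 5 nM final) with Tb-anti-GST donor was preincubated with compound 1 h at RT (pH 7.3 HEPES buffer, MgCl2, DTT), then SOScat (564-1049, 20 nM) and GTP-DY-647P1 (150 nM) were added. HTRF was read at RT; % inhibition vs DMSO/no-SOS blank, 4-parameter IC50 taken at 30 min.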

[3] = tested on: AGS cells (KRAS G12D), phospho-ERK; assay: pERK In Cell Western (ICW) assay (Method B), AGS cells; type: cell-based; conditions: Homo sapiens, Table 4, pERK, 3 hours, read-out: ICW-AGS
Method: as §1, §2, §3

Row | SMILES | IC50 [1] [nM] | IC50 [2] [nM] | IC50 [3] [nM]
1 | N#Cc1c(N2CCCC3(C2)NC(=O)NC3=O)nc(OC[C@@]23CCCN2C[C@H](F)C3)nc1N1CC2(CCc3sc(N)c(C#N)c32)C1 (stereo partly drawn) [Compound 12, 2-amino-1′-[5-cyano-6-(2,4-dioxo-1,3,9-triazaspiro[4.5]decan-9-yl)-2-[[(2R,8S)-2-fluoro-1,2,3,5,6,7-hexahydropyrrolizin-8-yl]methoxy]pyrimidin-4-yl]spiro[5,6-dihydrocyclopenta[b]thiophene-4,3′-azetidine]-3-carbonitrile] | 1000 to 10000 | < 10 | 1000 to 10000
2 | CC(=O)c1nn2c(c1Cl)CN(c1nc(OC[C@@]34CCCN3C[C@H](F)C4)nc(N3CC4(CCc5sc(N)c(C#N)c54)C3)c1C#N)CCC2 [Compound 13, 1′-[6-(2-acetyl-3-chloro-4,6,7,8-tetrahydropyrazolo[1,5-a][1,4]diazepin-5-yl)-5-cyano-2-[[(2R,8S)-2-fluoro-1,2,3,5,6,7-hexahydropyrrolizin-8-yl]methoxy]pyrimidin-4-yl]-2-amino-spiro[5,6-dihydrocyclopenta[b]thiophene-4,3′-azetidine]-3-carbonitrile] | 1 to 10 | < 10 | 10 to 100
3 | CC1CC2(CN(c3nc(OC[C@@]45CCCN4C[C@H](F)C5)nc(N4CCCn5nc(C(=O)N(C)C)c(Cl)c5C4)c3C#N)C2)c2c1sc(N)c2C#N (stereo partly drawn) [Compound 14, 5-[6-(2-amino-3-cyano-6-methyl-spiro[5,6-dihydrocyclopenta[b]thiophene-4,3′-azetidine]-1′-yl)-5-cyano-2-[[(2R,8S)-2-fluoro-1,2,3,5,6,7-hexahydropyrrolizin-8-yl]methoxy]pyrimidin-4-yl]-3-chloro-N,N-dimethyl-4,6,7,8-tetrahydropyrazolo[1,5-a][1,4]diazepine-2-carboxamide] | 1 to 10 | < 10 | 10 to 100
4 | N#Cc1c(N)sc2c1C1(CC2)CN(c2nc(OC[C@@]34CCCN3C[C@H](F)C4)nc(N3C[C@H]4CC[C@@H](C3)N4)c2F)C1 [Compound 15, 2-amino-1′-[6-(3,8-diazabicyclo[3.2.1]octan-3-yl)-5-fluoro-2-[[(2R,8S)-2-fluoro-1,2,3,5,6,7-hexahydropyrrolizin-8-yl]methoxy]pyrimidin-4-yl]spiro[5,6-dihydrocyclopenta[b]thiophene-4,3′-azetidine]-3-carbonitrile] | 10 to 100 | < 10 | 10 to 100
5 | Cc1noc(-c2cc3n(n2)CCCN(c2nc(OC[C@@]45CCCN4C[C@H](F)C5)nc(N4CC5(CCc6sc(N)c(C#N)c65)C4)c2C#N)C3)n1 [Compound 16, 2-amino-1′-[5-cyano-6-[2-(3-methyl-1,2,4-oxadiazol-5-yl)-4,6,7,8-tetrahydropyrazolo[1,5-a][1,4]diazepin-5-yl]-2-[[(2R,8S)-2-fluoro-1,2,3,5,6,7-hexahydropyrrolizin-8-yl]methoxy]pyrimidin-4-yl]spiro[5,6-dihydrocyclopenta[b]thiophene-4,3′-azetidine]-3-carbonitrile] | 100 to 1000 | < 10 | 100 to 1000
6 | Cc1noc(-c2nn3c(c2Cl)CN(c2nc(OC[C@@]45CCCN4C[C@H](F)C5)nc(N4CC5(CCc6sc(N)c(C#N)c65)C4)c2C#N)CCC3)n1 [Compound 17, 2-amino-1′-[6-[3-chloro-2-(3-methyl-1,2,4-oxadiazol-5-yl)-4,6,7,8-tetrahydropyrazolo[1,5-a][1,4]diazepin-5-yl]-5-cyano-2-[[(2R,8S)-2-fluoro-1,2,3,5,6,7-hexahydropyrrolizin-8-yl]methoxy]pyrimidin-4-yl]spiro[5,6-dihydrocyclopenta[b]thiophene-4,3′-azetidine]-3-carbonitrile] | 10 to 100 | < 10 | 100 to 1000
7 | CN(C)C(=O)c1nn2c(c1Cl)CN(c1nc(OCC34CCCN3CCC4)nc(N3CC4(CCc5sc(N)c(C#N)c54)C3)c1C#N)CCC2 [Compound 18, 5-[6-(2-amino-3-cyano-spiro[5,6-dihydrocyclopenta[b]thiophene-4,3′-azetidine]-1′-yl)-5-cyano-2-(1,2,3,5,6,7-hexahydropyrrolizin-8-ylmethoxy)pyrimidin-4-yl]-3-chloro-N,N-dimethyl-4,6,7,8-tetrahydropyrazolo[1,5-a][1,4]diazepine-2-carboxamide] | 10 to 100 | < 10 | 100 to 1000
8 | N#Cc1c(N2CCCCCC2)nc(OC[C@@]23CCCN2C[C@H](F)C3)nc1N1CC2(CCc3sc(N)c(C#N)c32)C1 [Compound 19, 2-amino-1′-[6-(azepan-1-yl)-5-cyano-2-[[(2R)-2-fluoro-1,2,3,5,6,7-hexahydropyrrolizin-8-yl]methoxy]pyrimidin-4-yl]spiro[5,6-dihydrocyclopenta[b]thiophene-4,3′-azetidine]-3-carbonitrile] | 100 to 1000 | 10 to 100 | 1000 to 10000
9 | CS(=O)(=O)c1cc2n(n1)CCCN(c1nc(OC[C@@]34CCCN3C[C@H](F)C4)nc(N3CC4(CCc5sc(N)c(C#N)c54)C3)c1C#N)C2 [Compound 21, 2-amino-1′-[5-cyano-2-[[(2R,8S)-2-fluoro-1,2,3,5,6,7-hexahydropyrrolizin-8-yl]methoxy]-6-(2-methylsulfonyl-4,6,7,8-tetrahydropyrazolo[1,5-a][1,4]diazepin-5-yl)pyrimidin-4-yl]spiro[5,6-dihydrocyclopenta[b]thiophene-4,3′-azetidine]-3-carbonitrile] | 10 to 100 | < 10 | 100 to 1000
10 | N#Cc1c(N)sc2c1C1(CC2)CN(c2nc(OCC3(CN4CCOCC4)CC3)nc(N3C[C@H]4CC[C@@H](C3)N4)c2F)C1 [Compound 22, 2-amino-1′-[6-(3,8-diazabicyclo[3.2.1]octan-3-yl)-5-fluoro-2-[[1-(morpholinomethyl)cyclopropyl]methoxy]pyrimidin-4-yl]spiro[5,6-dihydrocyclopenta[b]thiophene-4,3′-azetidine]-3-carbonitrile] | 10 to 100 | < 10 | 10 to 100
11 | N#Cc1c(N2C[C@H]3CC[C@@H](C2)N3)nc(OCC2(CN3CCOCC3)CC2)nc1N1CC2(CCc3sc(N)nc32)C1 [Compound 23, 4-(2-aminospiro[5,6-dihydrocyclopenta[d]thiazole-4,3′-azetidine]-1′-yl)-2-[[1-(morpholinomethyl)cyclopropyl]methoxy]-6-[(1R,5S)-3,8-diazabicyclo[3.2.1]octan-3-yl]pyrimidine-5-carbonitrile] | 10 to 100 | < 10 | 100 to 1000
12 | N#Cc1cc2n(n1)CCCN(c1nc(OC[C@@]34CCCN3C[C@H](F)C4)nc(N3CC4(CCc5sc(N)c(C#N)c54)C3)c1C#N)C2 [Compound 24, 2-amino-1′-[5-cyano-6-(2-cyano-4,6,7,8-tetrahydropyrazolo[1,5-a][1,4]diazepin-5-yl)-2-[[(2R,8S)-2-fluoro-1,2,3,5,6,7-hexahydropyrrolizin-8-yl]methoxy]pyrimidin-4-yl]spiro[5,6-dihydrocyclopenta[b]thiophene-4,3′-azetidine]-3-carbonitrile] | 100 to 1000 | 10 to 100 | 100 to 1000
13 | N#Cc1c(N2C[C@H]3CC[C@@H](C2)N3)nc(OC[C@@]23CCCN2C[C@H](F)C3)nc1N1CC2(CCc3sc(N)c(C#N)c32)C1 [Compound 25, 2-amino-1′-[5-cyano-6-(3,8-diazabicyclo[3.2.1]octan-3-yl)-2-[[(2R,8S)-2-fluoro-1,2,3,5,6,7-hexahydropyrrolizin-8-yl]methoxy]pyrimidin-4-yl]spiro[5,6-dihydrocyclopenta[b]thiophene-4,3′-azetidine]-3-carbonitrile] | 1 to 10 | < 10 | 10 to 100
